Laboratory results reported in US12195427B2, “MASP-2 inhibitors and methods of use” (priority 2018, dated 2025).

Target: MASP-2 CCP2-SP (Homo sapiens (Human), UniProt O00187)
Assay: MASP-2 co-crystallization, X-ray crystallography and structure analysis (H-bonds, van der Waals contacts);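 on Ligand-pharmacophore element distance, pharmacophore element C2: distance from averaged pharmacophore element to bound ligand; missing value means element absent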;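 on Ligand-pharmacophore element distance, pharmacophore element C3: distance from averaged pharmacophore element to bound ligand; missing value means element absent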;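 on Ligand-pharmacophore element distance, pharmacophore element C4: distance from averaged pharmacophore element to bound ligand; missing value means element absent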;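 on Ligand-pharmacophore element distance, pharmacophore element C5: distance from averaged pharmacophore element to bound ligand; missing value means element absent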
Design: van der Waals contact distance, MASP-2 HIS 483 atom CD2 / van der Waals contact distance, MASP-2 HIS 483 atom NE2 / van der Waals contact distance, SER 654 C to compound atom / van der Waals contact distance, SER 654 O to compound atom / van der Waals contact distance, TRP 655 C to compound atom / van der Waals contact distance, MASP-2 GLY 528 atom CA / van der Waals contact distance TRP 655 atom CZ3 / van der Waals contact distance TRP 655 atom N / van der Waals contact distance TRP 655 atom CE3 / van der Waals contact distance GLY 656 atom C / van der Waals contact distance GLY 656 atom CA / van der Waals contact distance GLY 656 atom O / van der Waals contact distance, MASP-2 TYR 607 atom CD1 / van der Waals contact distance, MASP-2 PRO 606 atom O / d(C3,CA1) / d(CA1,N1)2 / d(H4,O1) / d(H4,O2) / d(O1,O2) / d(CA1,O2) / d(CA6,O1) / d(CA6,O2) / d(CA1,C5) / d(O2,H3) / d(N2,C2) / d(CA5,N2) / d(N2,C4) / d(N2,C6) / d(N2,CA3) / d(N2,O3) / d(O4,H2): unit not given beside the values
Conditions: for Ligand-pharmacophore element distance, pharmacophore element C2 / Ligand-pharmacophore element distance, pharmacophore element C3 / Ligand-pharmacophore element distance, pharmacophore element C4 / Ligand-pharmacophore element distance, pharmacophore element C5 / Ligand-pharmacophore element distance, pharmacophore element C6 / Ligand-pharmacophore element distance, pharmacophore element C7 / Ligand-pharmacophore element distance, pharmacophore element CA1 / Ligand-pharmacophore element distance, pharmacophore element CA2 / Ligand-pharmacophore element distance, pharmacophore element CA3 / Ligand-pharmacophore element distance, pharmacophore element CA4 / Ligand-pharmacophore element distance, pharmacophore element CA5 / Ligand-pharmacophore element distance, pharmacophore element CA6: Table A4-1; for d(C3,CA1) / d(CA1,N1)2 / d(CA1,O1) / d(CA1,O2) / d(H4,O1) / d(H4,O2) / d(O1,O2): Table A5-1 pharmacophore: distance between elements, S2/S1 region; for d(N2,C4) / d(N2,C4)4 / d(N2,CA2) / d(O2,H3) / d(O2,N2): Table A5-2 pharmacophore distance, S3/S4 region; for a(C3, CA1, O1) / a(CA1, O1, O2) / a(O1, O2, H4) / a(N1, CA1, O1) b): Table A6-1 pharmacophore angle; for a(N1, CA1, O1) b): Methyl-amino-pyridine compounds; for a(O1, O2, H3) / a(O1, O2, N2) / a(O2, N2, C4) / a(O2, N2, C4) 2 / a(O2, N2, CA2): Table A6-2 pharmacophore angle; for Pharmacophore torsion angle a(C3, CA1, O1, H4) / Pharmacophore torsion angle a(H4, O1, O2, H3) / Pharmacophore torsion angle a(H4, O1, O2, N2) / Pharmacophore torsion angle a(N1, CA1, O1, H4) / Pharmacophore torsion angle a(O1, H4, O2, CA1): Table A7-1; for Pharmacophore torsion angle a(C3, CA1, O1, H4) / Pharmacophore torsion angle a(H4, O1, O2, H3) / Pharmacophore torsion angle a(H4, O1, O2, N2) / Pharmacophore torsion angle a(N1, CA1, O1, H4) / Pharmacophore torsion angle a(O1, H4, O2, CA1) / Pharmacophore torsion angle a(O1, O2, N2, CA2): between pharmacophore elements of the bound compound; for Pharmacophore torsion angle a(O1, O2, N2, CA2): Table A7-2
How it was run: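 Inhibitor complexes were obtained by soaking crystals of E. coli-expressed human MASP-2 CCP2-SP constructs, then flash-cooling in liquid nitrogen. Structures solved by molecular replacement (1Q3X search model) from synchrotron diffraction; where several poses existed, only one was analyzed, and nonbonded contacts listed can include H-bonds.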

Sequence of MASP-2 CCP2-SP (O00187 445-686): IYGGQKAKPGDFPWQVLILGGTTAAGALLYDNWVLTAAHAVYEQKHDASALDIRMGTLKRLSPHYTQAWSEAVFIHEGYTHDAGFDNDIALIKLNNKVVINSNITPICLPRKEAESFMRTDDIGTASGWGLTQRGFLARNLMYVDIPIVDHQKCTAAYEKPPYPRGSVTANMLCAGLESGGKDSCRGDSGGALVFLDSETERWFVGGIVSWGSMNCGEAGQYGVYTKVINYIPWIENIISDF
Sequence of MASP-2 CCP2-SP (O00187 364-432 partner): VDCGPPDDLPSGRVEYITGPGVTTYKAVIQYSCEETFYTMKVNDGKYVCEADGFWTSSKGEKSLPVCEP

Structure (SMILES) | Ligand-pharmacophore element distance, pharmacophore element C2 | Ligand-pharmacophore element distance, pharmacophore element C3 | Ligand-pharmacophore element distance, pharmacophore element C4 | Ligand-pharmacophore element distance, pharmacophore element C5 | Ligand-pharmacophore element distance, pharmacophore element C6 | Ligand-pharmacophore element distance, pharmacophore element C7 | Ligand-pharmacophore element distance, pharmacophore element CA1 | Ligand-pharmacophore element distance, pharmacophore element CA2 | Ligand-pharmacophore element distance, pharmacophore element CA3 | Ligand-pharmacophore element distance, pharmacophore element CA4 | Ligand-pharmacophore element distance, pharmacophore element CA5 | Ligand-pharmacophore element distance, pharmacophore element CA6 | d(C3,CA1) | d(CA1,N1)2 | d(CA1,O1) | d(CA1,O2) | d(H4,O1) | d(H4,O2) | d(O1,O2) | d(N2,C4) | further results
Cc1nc(N)ccc1CNC(=O)[C@H](C)NC(=O)[C@H]1C[C@H](Cc2cccc(Cl)c2)CN1.Cl.Cl [1328_1] | 0 | 0.4 | 0.76 | 0 | 0 | 0 | 0.49 | 0.5 | 0 | 0 | 0 | 0 | 2.85 | 1.37 | 4.24 | 3.54 | 4.21 | 3.54 | 3.13 | 8.09 | d(N2,C4)4: 8.09; d(N2,CA2): 5.88; d(O2,H3): 4.20; d(O2,N2): 2.79; a(C3, CA1, O1): 150.62; a(CA1, O1, O2): 101.20; a(O1, O2, H4): 133.34; a(N1, CA1, O1) b): 175.41; a(O1, O2, H3): 150.01; a(O1, O2, N2): 145.32; a(O2, N2, C4): 161.66; a(O2, N2, C4) 2: 114.03; a(O2, N2, CA2): 155.25; Pharmacophore torsion angle a(C3, CA1, O1, H4): 30.10; Pharmacophore torsion angle a(H4, O1, O2, H3): 55.62; Pharmacophore torsion angle a(H4, O1, O2, N2): 136.65; Pharmacophore torsion angle a(N1, CA1, O1, H4): 20.31; Pharmacophore torsion angle a(O1, H4, O2, CA1): −88.07; Pharmacophore torsion angle a(O1, O2, N2, CA2): 126.19
Cc1nc(N)ccc1CNC(=O)[C@H](C)NC(=O)[C@H]1C[C@H](Cc2cccc(Cl)c2)CN1.Cl.Cl [1328_2] | 0 | 0.15 | 1.28 | 0 | 0 | 0 | 0.41 | 0.43 | 0 | 0 | 0 | 0 | 2.85 | 1.38 | 4.43 | 4.01 | 4.38 | 3.84 | 3.08 | 7.87 | d(N2,C4)4: 7.87; d(N2,CA2): 5.92; d(O2,H3): 4.54; d(O2,N2): 2.75; a(C3, CA1, O1): 150.10; a(CA1, O1, O2): 103.89; a(O1, O2, H4): 136.71; a(N1, CA1, O1) b): 173.89; a(O1, O2, H3): 149.68; a(O1, O2, N2): 139.05; a(O2, N2, C4): 160.74; a(O2, N2, C4) 2: 109.44; a(O2, N2, CA2): 154.85; Pharmacophore torsion angle a(C3, CA1, O1, H4): 21.76; Pharmacophore torsion angle a(H4, O1, O2, H3): 51.26; Pharmacophore torsion angle a(H4, O1, O2, N2): 134.72; Pharmacophore torsion angle a(N1, CA1, O1, H4): −4.36; Pharmacophore torsion angle a(O1, H4, O2, CA1): −83.32; Pharmacophore torsion angle a(O1, O2, N2, CA2): 132.29
Cc1nc(N)ccc1CNC(=O)[C@H](C)NC(=O)[C@H]1C[C@H](Cc2cccc(Cl)c2)CN1.Cl.Cl [1328_3] | 0 | 0.21 | 1.76 | 0 | 0 | 0 | 0.4 | 0.48 | 0 | 0 | 0 | 0 | 2.85 | 1.38 | 4.82 | 3.89 | 3.99 | 2.55 | 3.40 | 7.95 | d(N2,C4)4: 7.95; d(N2,CA2): 6.00; d(O2,H3): 4.77; d(O2,N2): 2.77; a(C3, CA1, O1): 150.74; a(CA1, O1, O2): 97.62; a(O1, O2, H4): 122.23; a(N1, CA1, O1) b): 173.57; a(O1, O2, H3): 151.35; a(O1, O2, N2): 139.67; a(O2, N2, C4): 160.41; a(O2, N2, C4) 2: 106.08; a(O2, N2, CA2): 154.95; Pharmacophore torsion angle a(C3, CA1, O1, H4): 57.52; Pharmacophore torsion angle a(H4, O1, O2, H3): 47.98; Pharmacophore torsion angle a(H4, O1, O2, N2): 130.71; Pharmacophore torsion angle a(N1, CA1, O1, H4): 39.33; Pharmacophore torsion angle a(O1, H4, O2, CA1): −87.28; Pharmacophore torsion angle a(O1, O2, N2, CA2): 131.79
Cc1nc(N)ccc1CNC(=O)[C@H](C)NC(=O)[C@H]1C[C@H](Cc2cccc(Cl)c2)CN1.Cl.Cl [1328_4] | 0 | 0.18 | 1.86 | 0 | 0 | 0 | 0.5 | 0.3 | 0 | 0 | 0 | 0 | 2.85 | 1.37 | 5.05 | 3.83 | 4.21 | 2.53 | 3.71 | 7.92 | d(N2,C4)4: 7.92; d(N2,CA2): 6.17; d(O2,H3): 4.71; d(O2,N2): 2.79; a(C3, CA1, O1): 151.05; a(CA1, O1, O2): 96.00; a(O1, O2, H4): 119.12; a(N1, CA1, O1) b): 173.49; a(O1, O2, H3): 150.66; a(O1, O2, N2): 142.82; a(O2, N2, C4): 160.57; a(O2, N2, C4) 2: 109.36; a(O2, N2, CA2): 156.25; Pharmacophore torsion angle a(C3, CA1, O1, H4): 66.00; Pharmacophore torsion angle a(H4, O1, O2, H3): 44.95; Pharmacophore torsion angle a(H4, O1, O2, N2): 135.08; Pharmacophore torsion angle a(N1, CA1, O1, H4): 58.16; Pharmacophore torsion angle a(O1, H4, O2, CA1): −91.48; Pharmacophore torsion angle a(O1, O2, N2, CA2): 128.70
